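Results reflect a 48-hour exposure of cells in 96-well plates to compound at five concentrations. TGI is the concentration that stops growth completely.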
Key:
Assay in all cases: NCI tumour cell line growth inhibition, 48 h
[1] = test system: MDA-MB-231 breast
[2] = test system: SK-OV-3 ovarian
[3] = test system: SF-268 CNS
[4] = test system: KM12 colon
[5] = test system: HCT-15 colon
[6] = test system: PC-3 prostate
[7] = test system: COLO 205 colon
[8] = test system: M14 melanoma
[9] = test system: MDA-N
[10] = test system: 786-0 renal
[11] = test system: SW-620 colon
[12] = test system: SF-295 CNS

| SMILES | TGI [1] | TGI [2] | TGI [3] | TGI [4] | TGI [5] | TGI [6] | TGI [7] | TGI [8] | TGI [9] | TGI [10] | TGI [11] | TGI [12] |
| --- | --- | --- | --- | --- | --- | --- | --- | --- | --- | --- | --- | --- |
| Cc1nn(C(=O)c2ccncc2)c2c1C(c1ccccc1)SC(N)=N2 (stereo not drawn) | > 10 µM | > 10 µM | > 10 µM | > 10 µM | > 10 µM | > 10 µM | > 10 µM | > 10 µM | > 10 µM | > 10 µM | > 10 µM | > 10 µM |
| O=C1CC(=O)NC(=NN2C(=O)/C(=C/c3ccccc3)N=C2c2ccccc2)N1 | > 100 µM | > 100 µM | > 100 µM | > 100 µM | > 100 µM | > 100 µM | > 100 µM | > 100 µM | > 100 µM | > 100 µM | > 100 µM | > 100 µM |
| CC(=O)Oc1cc2c(c3ncccc13)OC(C)(C)C2 | 24.4 µM | > 100 µM | 25.9 µM | 30.7 µM | 46.5 µM | > 100 µM | 35 µM | 27.5 µM | 10.9 µM | 30.3 µM | > 100 µM | 36.1 µM |
| COc1cc(C2SC(N)=Nc3c2c(C)nn3C(=O)c2ccccc2O)ccc1O (stereo not drawn) | > 10 µM | > 10 µM | > 10 µM | > 10 µM | > 10 µM | > 10 µM | > 10 µM | > 10 µM | > 10 µM | > 10 µM | > 10 µM | > 10 µM |
